Test results reported in article PMC11939470, “The Cyclic Antimicrobial Peptide C-LR18 Has Enhanced Antibacterial Activity, Improved Stability, and a Longer Half-Life Compared to the Original Peptide” (Antibiotics, 2025).
Where a SMILES comes first, the peptide text is derived from it. Bridges are numbered along the chain shown (N, C = ends).

Tests used:
Gram-negative bacteria = test: Geometric mean MIC (MBC) and therapeutic index; type: cell-based; settings: average MIC against the tested Gram-negative strains
Protocol: (§1) The MIC test was performed using the method recommended by the National Committee for Clinical Laboratory Standards (NCCLS) Standards and Guidelines, and the method was modified according to the characteristics of antimicrobial peptides. The bacteria were cultured at 37 °C for 16 h, and the microbial suspension was diluted to a final concentration of 5 × 10^5 CFU/mL. Then, 50 µL of bacterial solution was mixed with 50 µL of MHB containing different concentrations peptides (0.5–256 µM) in a 96-well plate. […] The assays were performed three times. Geometric mean MIC represents the average MIC of the peptide against all the tested strains.
MBC detection was performed according to the method of Taiyari et al.. According to the MIC results, 50 µL of bacterial cultures was absorbed from the minimum inhibitory concentration hole and the three previous holes, respectively; transferred to a new MH solid medium; and incubated in an incubator at 37 °C overnight, and the bacteria on the plate were counted. The concentration of antibacterial peptide that kills 99.99% of the tested bacteria is defined as the minimum bactericidal concentration (MBC) of the peptide. The experiment was repeated three times. Geometric mean MBC represents the average […] of the peptide against all the tested strains.

E. coli ATCC25922 [1] = test: Stability in protease, read out by MIC assay; type: in vitro ADME; settings: 1 mg/mL papain for 1 h
Protocol: as §1
The stability of LR18 and C-LR18 in protease, serum, and gastrointestinal conditions was determined using MIC assay, as described previously.
To detect the stability of peptides in protease, the peptides were diluted in 1 mg/mL of trypsin, pepsin, papain, and protease K, respectively, and incubated at 37 °C for 1 h. Then, the protease in the peptide solutions was inactivated in a water bath at 60 °C for 30 min. Subsequent steps were the same as for the MIC assay. The assays were performed three times.

E. coli ATCC25922 [2] = test: Impact of temperature and pH on MIC; type: physicochemical; settings: after 100 °C for 30 min, acid treatment (pH4) 1 h, alkali treatment (pH10) 1 h
Protocol: as §1
The impact of temperature on peptides’ antimicrobial activity was also tested.

[3] = Half-life of peptides in plasma in vitro (HPLC); type: in vitro ADME, rat
Protocol: Half-life of peptides in vitro was determined using HPLC according to the method described in [30]. Blood from SPF SD rats was collected in a centrifuge tube containing 0.5% heparin sodium via cardiac sampling. Plasma was separated and stored at −80 °C until analyzed. The plasma samples with final concentrations of 25 μg/mL, 50 μg/mL, 100 μg/mL, 200 μg/mL, 400 μg/mL, and 750 μg/mL were prepared by mixing 1500 μg/mL of antimicrobial peptides with rat plasma, then adding acetonitrile containing 0.1% TFA at 1/1 volume. After vortexing for 30 s, the samples were centrifuged at 14,000 r/min for 20 min, the supernatant was aspirated, sterilized using a 0.22 μm sterilization filter, and 30 μL of the sample was used for HPLC determination. After HPLC detection, the value of the chromatographic peak area was counted, the mathematical relationship between the sample concentration and the chromatographic peak area was calculated, and the standard curve was drawn. The standard curve was regressio-calculated by linear fitting Y = aX + b and weighted least square method (w = 1/c2).
The 1 mg/mL peptide solution was mixed with SD rat plasma and incubated in a water bath at 37 °C. Samples were taken at different time points of 0, 20, 30, 40, 60, 80, 100, 120, 140, 160, 180, 200, 210, 240, 300, 400, 500, and 600 min. After vortexing for 30 s, the samples were centrifuged at 14,000 r/min for 20 min, the supernatant was aspirated and sterilized using a 0.22 μm sterilization filter, and 30 μL of the sample was used for HPLC determination. The experiment was repeated three times. The peak area measured by HPLC was substituted into the standard curve obtained by the above experiment, the peptide concentration at different time points was calculated, and the half-life of peptides in plasma was calculated.

[4] = Half-life and pharmacokinetics in SD rats after caudal vein administration (HPLC); type: in vivo
Protocol: Half-life of peptides in SD rats was determined via HPLC according to the method described in [31]. The SD rats were maintained at constant room temperature [(25 ± 2) °C] with free access to food and water for 48 h. Each SD rat was weighed to an accuracy of 0.10 g, numbered, and grouped randomly, with 6 rats in each group. LR18 and C-LR18 were injected into SD rats via tail vein at a dose of 5 mg/kg body weight. A total of 200 μL of blood was collected from the orbital venous plexus at different time points of 0, 0.5, 0.8, 1.0, 1.5, 2.5, 3.5, 5, 10, 30, and 60 min, and placed into a centrifuge tube containing 0.5% heparin sodium. After centrifugation at 3000 r/min for 15 min, the supernatant was absorbed into a new centrifuge tube, and then acetonitrile containing 0.1% TFA was added at 1/1 volume. Vortexing for 30 s, the samples were centrifuged at 14,000 r/min for 20 min, the supernatant was aspirated and sterilized using a 0.22 μm sterilization filter, and 30 μL of the sample was used for HPLC determination. The pharmacokinetic parameters were calculated using Phoenix Winnonlin 7.0 software and analyzed with non-atrioventricular model. Drug–time curves were plotted using Graphpad Prim, and Mean ± SD was used to interpolate each point during drug–time curve fitting.

KM mice = test: Acute toxicity (LD50) in mice, tail vein; type: in vivo; settings: for Number of Animal Deaths (r) / Survival Rate (q): 10 mice
Protocol: The health status of mice was observed, and the mortality data of 5 groups of mice were recorded. The LD50 and 95% confidence limit of C-LR18 for mice were calculated according to the following formula:LD50 = log − 1[Xm − i(ΣP − 0.5)](3) (4) SX50=i∑pq/n 95% Confidence limits of LD50 = log − 1(log − 1LD50 ± 1.96SX50)(5)
Xm: dose pair value of maximum dose group, i: the difference between the dose pairs of two adjacent groups, P: animal mortality in each group, ΣP: the sum of the mortality of each group of animals, n: number of animals per group, q: survival rate per dose group, […].

CC(C)C[C@@H]1NC(=O)[C@H](CCCNC(=N)N)NC(=O)[C@H](CCCNC(=N)N)NC(=O)[C@H](CC(C)C)NC(=O)[C@H](CC(C)C)NC(=O)[C@H](CCCNC(=N)N)NC(=O)[C@H](CC(C)C)NC(=O)[C@@H]2CCCN2C(=O)[C@H](CCCNC(=N)N)NC(=O)[C@H](CCCNC(=N)N)NC(=O)[C@@H]2CCCN2C(=O)[C@H](CC(C)C)NC(=O)[C@H](CCCNC(=N)N)NC(=O)[C@H](CC(C)C)NC(=O)[C@H](CC(C)C)NC(=O)[C@H](CCCNC(=N)N)NC(=O)[C@H](CCCNC(=N)N)NC(=O)[C@H](CC(C)C)NC(=O)[C@@H](N)CSSC[C@@H](C(=O)O)NC1=O [C-LR18] (H-CLRRLLRLPRRPLRLLRRLC-OH; disulfide 1-20; N-terminus and C-terminus assumed)
Geometric mean MIC (Gram-negative bacteria): 2 µM | change of antibacterial activity after papain (E. coli ATCC25922 [1]): remained unchanged | expansion of MIC (E. coli ATCC25922 [2]): 2 times | half-life ([3]; 1 mg/mL peptide solution mixed with SD rat plasma (heparin), 37 °C water bath, 0–600 min, HPLC, repeated three times): 209 ± 20.2 min | peptide degraded in plasma ([3]; after 210 min, rat plasma 37 °C, HPLC): More than half | peptide detected in plasma samples ([3]; after 600 min, rat plasma 37 °C, HPLC): no C-LR18 could be detected | half-life in rat plasma relative to LR18 ([3]; in vitro rat plasma): 3.37 times | prolongation of half-life in rat plasma versus LR18 ([3]; in vitro rat plasma): 147.33 min | half-life in rats relative to LR18 ([4]; SD rats iv): 4.66 times | prolongation of half-life in rats versus LR18 ([4]; SD rats iv): 10 min | Cmax ([4]; SD rats, tail vein, 5 mg/kg, HPLC, n = 3): 254.23 ± 6.30 µg/mL | AUC0-t ([4]; SD rats, tail vein, 5 mg/kg, non-compartmental, HPLC, n = 3 (method: 6 rats per group)): 3376.13 ± 37.72 µg·min/mL | MRT ([4]; rat, plasma, iv, SD rats, tail vein, 5 mg/kg, HPLC, n = 3, read-out: MRT0-t (converted)): 13.5 min | half-life ([4]; rat, plasma, iv, SD rats, tail vein, 5 mg/kg, HPLC, n = 3, read-out: T1/2β (terminal elimination half-life)): 12.7 ± 0.79 min | Number of Animal Deaths (r) (KM mice; 36 mg/kg tail vein): 0 | Survival Rate (q) (KM mice; 36 mg/kg tail vein): 1 | Number of Animal Deaths (r) (KM mice; 44 mg/kg tail vein): 2 | Survival Rate (q) (KM mice; 44 mg/kg tail vein): 0.8 | Number of Animal Deaths (r) (KM mice; 53 mg/kg tail vein): 5 | Survival Rate (q) (KM mice; 53 mg/kg tail vein): 0.5 | Number of Animal Deaths (r) (KM mice; 64 mg/kg tail vein): 7 | Survival Rate (q) (KM mice; 64 mg/kg tail vein): 0.3 | Number of Animal Deaths (r) (KM mice; 77 mg/kg tail vein): 10 | Survival Rate (q) (KM mice; 77 mg/kg tail vein): 0 | 95% confidence limit of LD50 (KM mice; Kunming mice, tail vein): 28.0 to 50.1 mg/kg
